Measured values from article PMC2864539 (Cancer research, 2010).

Tests used:
human COX-2 = target: T1, human COX-2 (Homo sapiens, UniProt P35354); experiment: [[…]-14C]arachidonic acid conversion, radio-TLC; type: biochemical
T1 sequence (P35354 18-604): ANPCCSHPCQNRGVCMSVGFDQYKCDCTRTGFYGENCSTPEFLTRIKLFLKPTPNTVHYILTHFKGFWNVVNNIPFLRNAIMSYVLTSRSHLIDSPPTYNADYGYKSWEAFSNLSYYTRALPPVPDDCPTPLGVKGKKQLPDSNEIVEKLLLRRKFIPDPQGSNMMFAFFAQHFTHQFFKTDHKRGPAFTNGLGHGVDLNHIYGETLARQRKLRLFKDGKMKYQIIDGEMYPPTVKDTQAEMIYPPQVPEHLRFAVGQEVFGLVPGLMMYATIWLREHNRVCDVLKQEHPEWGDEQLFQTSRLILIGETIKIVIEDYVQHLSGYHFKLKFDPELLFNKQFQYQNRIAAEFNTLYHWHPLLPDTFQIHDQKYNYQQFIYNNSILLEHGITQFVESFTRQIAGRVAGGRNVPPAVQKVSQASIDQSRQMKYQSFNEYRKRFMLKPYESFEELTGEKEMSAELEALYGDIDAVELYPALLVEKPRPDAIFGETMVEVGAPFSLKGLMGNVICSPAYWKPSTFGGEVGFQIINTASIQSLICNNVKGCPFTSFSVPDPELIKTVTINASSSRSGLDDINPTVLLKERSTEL

ovine COX-1 = target: T2, ovine COX-1 (Ovis aries, UniProt P05979); experiment: [[…]-14C]arachidonic acid conversion, radio-TLC; type: biochemical
T2 sequence (P05979 25-600): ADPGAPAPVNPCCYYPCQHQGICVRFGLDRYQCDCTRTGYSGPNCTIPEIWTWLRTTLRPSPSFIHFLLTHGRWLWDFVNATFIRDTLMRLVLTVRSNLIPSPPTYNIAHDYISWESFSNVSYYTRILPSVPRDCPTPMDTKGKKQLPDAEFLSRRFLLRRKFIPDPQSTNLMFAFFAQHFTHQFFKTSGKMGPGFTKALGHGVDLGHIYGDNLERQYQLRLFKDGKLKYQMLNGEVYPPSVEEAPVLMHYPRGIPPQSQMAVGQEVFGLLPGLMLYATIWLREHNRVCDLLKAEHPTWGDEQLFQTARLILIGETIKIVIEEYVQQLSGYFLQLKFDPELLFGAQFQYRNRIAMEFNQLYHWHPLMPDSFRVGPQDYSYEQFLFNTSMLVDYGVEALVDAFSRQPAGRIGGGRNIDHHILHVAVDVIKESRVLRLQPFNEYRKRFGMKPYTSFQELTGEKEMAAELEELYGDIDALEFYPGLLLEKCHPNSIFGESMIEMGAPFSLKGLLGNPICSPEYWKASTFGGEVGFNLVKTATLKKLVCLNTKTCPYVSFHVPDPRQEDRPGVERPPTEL

IC50 (human COX-2): > 4 µM
IC50 (ovine COX-1): > 66 µM
SMILES: COc1ccc2c(c1)c(CC(=O)NCCNC(=O)c1ccc(C(=O)[O-])c(C3=c4cc5c6c(c4Oc4c3cc3c7c4CCCN7CCC3)CCC[N+]=6CCC5)c1)c(C)n2C(=O)c1ccc(Cl)cc1 [compound 3]
